# Key:
# Type in all cases: in vivo, human
# [1] = system: alternative complement pathway; assay: Phase 2 study CLNP023X2202, complement biomarkers
# Protocol: (§1) The proposed iptacopan dose of 200 mg b.i.d. is considered appropriate based on data from the Phase 2 study, CLNP023X2202. […] Thus, the 200 mg b.i.d. dose of iptacopan appears to produce maximum changes in all of the complement biomarkers that have been evaluated to date in C3G patients.
# [2] = system: native kidney C3G patients; assay: Phase 2 study CLNP023X2202, safety and tolerability
# Protocol: as §1
# native C3G patients = assay: Phase 2 study CLNP023X2202, proteinuria and renal function; conditions: native C3G patients (N=16), final dose levels of 200 mg b.i.d.
# Protocol: as §1
compound,measurement,setting,value
"CCO[C@H]1CCN(Cc2c(OC)cc(C)c3[nH]ccc23)[C@H](c2ccc(C(=O)O)cc2)C1 [iptacopan, 4-((2S,4S)-(4-ethoxy-1-((5-methoxy-7-methyl-1H-indol-4-yl)methyl)piperidin-2-yl))benzoic acid]","C3 levels, dose dependence",[1]; 16 native C3G patients,increased dose-dependently
same,"dose at which maximum decreases in plasma Bb, plasma sC5b-9 and urine sC5b-9 were obtained",[1]; 16 native C3G patients,100 mg b.i.d.
same,dose at which maximum decreases in the Wieslab assay and increases in C3 were observed,[1]; 16 native C3G patients,200 mg b.i.d.
same,"sC5b-9, Bb, the Wieslab assay and urine sC5b-9, dose dependence",[1]; 16 native C3G patients,decreased dose-dependently
same,"plasma Bb, plasma and urine sC5b-9",[1]; Cohort A,reduction
same,Wieslab activity,[1]; at 200 mg b.i.d,full inhibition
same,serum C3 levels,[1]; both cohorts,overall normalization
same,inhibition of alternative complement pathway,"[1]; both cohorts, upon iptacopan treatment","Dose-dependent, profound and sustained inhibition"
same,"changes in hematology, biochemistry, urinalysis, vital signs or ECG parameters",[2]; in vivo,no notable changes
same,discontinuations due to adverse events,[2]; in vivo,no definitive discontinuations due to adverse events
same,tolerability,[2]; in vivo,well tolerated without unexpected or new safety findings
same,deaths or serious adverse events during the treatment period,[2]; native kidney C3G patients,no deaths or serious adverse events were observed
same,"renal function (SCR, CrCl, eGFR)",native C3G patients,stabilization of renal function
same,reduction in UPCR from baseline to Week 12,native C3G patients; two-sided p=0.0003,45%
